{"source": "paper PMC7795518", "about": "“Insights into the Interaction of LVV-Hemorphin-7 with Angiotensin II Type 1 Receptor” (International Journal of Molecular Sciences, 2020)", "key": {"dopamine 1 receptor": {"test_system": "dopamine 1 receptor", "conditions": "allosteric modulator binding preferentially to ICL2; cited from earlier work", "description": "Positive allosteric binding sites of GPCRs have been identified in the past. However, recent studies have […] the potential of positive allosteric modulators in multiple GPCRs using in vitro and in silico approaches. Allosteric binding sites located near the extracellular (EC) face and IC face in different GPCRs have been documented. Allosteric sites near the orthosteric site in GPCRs often block the entry of other ligands. However, this would not be a problem for allosteric ligands that target the IC region. DETQ, an al ..."}, "AT1R": {"test_system": "AT1R", "conditions": "HEK293 cells; Gαq/inositol phosphate pathway and ERK1/2 phosphorylation; cited from earlier work", "description": "Hemorphins are endogenous hemoglobin-derived peptides implicated in numerous physiological and pathophysiological situations including spatial learning, inflammation, analgesia, and transient hypotension. The molecular targets of hemorphins comprise the cell-surface G protein-coupled receptor (GPCR) members such as the opioid receptors and also the membrane AngIV receptor [3, 8]. Moreover, hemorphins are also known for their inhibitory effects on the angiotensin-converting enzyme (ACE), a key enzyme in the renin–angiotensin system (RAS). ..."}, "[1]": {"target": "T1, AngII type 1 receptor (AT1R) (Homo sapiens, UniProt P30556)", "T1 construct": "host or cells: HEK293FT", "T1 sequence (P30556 1-359)": "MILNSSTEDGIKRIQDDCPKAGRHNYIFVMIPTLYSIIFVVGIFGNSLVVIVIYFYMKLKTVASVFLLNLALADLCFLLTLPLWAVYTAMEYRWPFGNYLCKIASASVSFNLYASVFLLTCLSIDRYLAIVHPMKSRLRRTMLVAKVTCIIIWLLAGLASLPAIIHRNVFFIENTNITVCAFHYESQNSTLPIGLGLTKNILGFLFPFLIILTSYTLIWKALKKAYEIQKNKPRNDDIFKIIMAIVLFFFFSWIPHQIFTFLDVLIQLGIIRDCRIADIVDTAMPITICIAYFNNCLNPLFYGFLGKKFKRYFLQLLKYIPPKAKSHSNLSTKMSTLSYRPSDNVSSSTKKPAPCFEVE", "assay": "Saturation NanoBRET binding of BODIPY-AngII to Nluc-AT1R in live HEK293FT cells", "description": "Figure 1 Saturation binding of BODIPY-angiotensin II (AngII) to AngII type 1 receptor (AT1R) using NanoBRET assay in live HEK293FT cells. HEK293FT cells transiently expressing Nluc-AT1R (NanoBRET donor) were first treated with 10 μM LVV-H7 or vehicle (A) or 1 μM olmesartan medoxomil or vehicle (B) for 20 min at 37 °C. […] Data are mean ± SEM of four (A) or three (B) independent experiments performed in duplicate.\n(A) HEK293FT cells transiently expressing Nluc-AT1R (NanoBRET donor) were first treated with 1 μM olmesartan medoxomil or vehicle and then immediately treated with 0, 10, or 100 μM LVV-H7. […] Specific binding curves were generated by subtracting olmesartan medoxomil-treated wells from vehicle-treated wells for each concentration of LVV-H7.\n(§1) The NanoLuc-AT1R coding plasmid (Promega, Madison, WI, USA) was used for its transient expression in HEK293FT cells as previously reported.\n(§2) Human embryonic kidney (HEK) 293FT cells (Thermo Fisher Scientific) were cultured and maintained at 37 °C, 5% CO2 in complete medium (Dulbecco’s modified Eagle’s medium (DMEM) containing 0.3 mg/mL glutamine, 100 IU/mL penicillin, and 100 μg/mL streptomycin) supplemented with 10% fetal calf serum (FCS) (Bovogen Biologicals, Victoria, Australia) and 400 μg/mL Geneticin (Thermo Fisher Scientific). Transient transfections were carried out 24 h after seeding 600,000 cells/well of a 6-well plate. FuGENE 6 (Promega) transfection reagent was used according to the manufacturer’s instructions. Cells were harvested with 0.05% Trypsin-EDTA 24 h after transfection and seeded into poly-L-lysine (Sigma Aldrich) coated white 96-well plates (Greiner Bio-One, Frickenhausen, Germany) at 80,000 cells/well in phenol red-free DMEM containing 25 mM HEPES, 0.3 mg/mL glutamine, 100 IU/mL penicillin, and 100 μg/mL streptomycin supplemented with 5% FCS.\nThe NanoLuc substrate furimazine (Promega) was then added to a final concentration of 10 μM and light emission was measured at 37 °C using the filters 450 nm (80-nm bandpass) and >610 nm (longpass) on the LUMIstar or CLARIOstar multilabel plate reader (BMG Labtech (Australia), Mornington, VIC, Australia).\nThe NanoBRET ratios were determined by dividing the >610 nm (longpass) emission by 450 nm (80-nm bandpass) emission and subtracting the background ratio. Then, the percentage of NanoBRET signals were calculated as described in figure legends. The saturation and kinetic curves were fitted with the appropriate nonlinear regression equations using GraphPad Prism software (San Diego, CA, USA). Statistical analyses were performed with paired one-way ANOVA or paired t-tests as appropriate to determine statistical significance between the different conditions. **** p-value < 0.0001, *** p-value < 0.001, ** p-value < 0.01, * p-value < 0.05, and ns p-value > 0.05."}, "[2]": {"target": "T1, AngII type 1 receptor (AT1R)", "assay": "Real-time NanoBRET kinetics of BODIPY-AngII binding to Nluc-AT1R in live HEK293FT cells", "conditions": "10 μM LVV-H7, 30 min pre-incubation, 100 nM BODIPY-AngII", "description": "as §1, §2\nThe NanoBRET ratios were determined by dividing the >610 nm (longpass) emission by 450 nm (80-nm bandpass) emission and subtracting the background ratio. Then, the percentage of NanoBRET signals were calculated as described in figure legends. […]"}}}
{"compound": "C[C@H]1c2cccc(C(C)(C)O)c2C[C@H](CO)N1C(=O)Cc1c(Cl)cccc1Cl", "note": "[DETQ]", "values": [{"measurement": "effect on potency of dopamine", "setting": "dopamine 1 receptor", "value": "significantly enhanced the potency of dopamine"}]}
{"compound": "LVVYPWTQRF [LVV-H7, LVV-hemorphin-7, decapeptide LVV-hemorphin-7 ([…]) (New England Peptide)]", "values": [{"measurement": "modulation of AT1R activity and downstream signaling", "setting": "AT1R", "value": "positive modulation of its activity and downstream signaling pathways in HEK293 cells"}, {"measurement": "competition for binding with BODIPY-AngII", "setting": "[1]; 10 μM LVV-H7, 20 min at 37 °C before BODIPY-AngII 40 min, four independent experiments in duplicate", "value": "did not compete for binding with BODIPY-AngII"}, {"measurement": "effect on maximum binding (Bmax) of BODIPY-AngII", "setting": "[1]; LVV-H7 0, 10, 100 μM, saturation binding, n = 6", "value": "without altering the maximum binding"}, {"measurement": "decrease of AngII's kD", "setting": "[1]; NanoBRET in HEK293FT cells, effect of LVV-H7", "value": 2.6, "unit": "fold"}, {"measurement": "effect on binding of BODIPY-AngII", "setting": "[1]; increasing LVV-H7 (0, 10, 100 μM), n = 6", "value": "significantly potentiated the binding of BODIPY-AngII"}, {"measurement": "effect on maximal binding of BODIPY-AngII (kinetics)", "setting": "[2]; n = 4, p < 0.05", "value": "significantly increased the maximal binding of BODIPY-AngII"}, {"measurement": "effect on binding rate (T1/2) of BODIPY-AngII", "setting": "[2]; n = 4, p > 0.05", "value": "no effect on the binding rate"}]}
{"compound": "CCCc1nc(C(C)(C)O)c(C(=O)OCc2oc(=O)oc2C)n1Cc1ccc(-c2ccccc2-c2nnn[nH]2)cc1", "note": "[olmesartan medoxomil, reference compound]", "values": [{"measurement": "displacement of BODIPY-AngII binding", "setting": "[1]; 1 μM olmesartan medoxomil, 20 min at 37 °C before BODIPY-AngII 40 min, three independent experiments in duplicate", "value": "~ 75%"}]}
